Here are results for 24 molecules from patent publication US11045457B2, “Piperidinyl-3-(aryloxy)propanamides and propanoates” (priority 2018, dated 2021).

Assay [1] deals with T1, SSTR4 (Homo sapiens (Human), UniProt P31391). Description: Inhibition of forskolin stimulated cAMP in CHO-K1 cells overexpressing SSTR4. The class given is cell-based. The following applies: for EC50: read-out: SSTR4 Activity pEC50 (converted). A digest of the protocol:
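Read-out is a HTRF LANCE Ultra cAMP competition using Eu-labelled streptavidin and biotin-cAMP, incubated 60 min at room temperature. It followed a 30 min room-temperature exposure of Kreb's Ringer-washed cells to compound plus forskolin. Potency is expressed as pEC50.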

The next assay deals with SSTR1 (Homo sapiens (Human), UniProt P30872). Description: SSTR1 I-125 somatostatin competition binding assay for selectivity versus SSTR4 (membranes from CHO-K1 cells overexpressing SSTR1).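 As to all read-outs here: Filter-based radioligand binding, bound label counted by scintillation after 60 min incubation at room temperature.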 The note with it: for SSTR1 Binding pIC50: competition with I-125 labeled somatostatin, CHO-K1 SSTR1 membranes.
Assay [2] has as its target T1, SSTR4. The assay can be described thus: SSTR4 I-125 somatostatin competition binding assay (membranes from CHO-K1 cells overexpressing SSTR4). The note with it: competition with I-125 labeled somatostatin; for IC50: read-out: SSTR4 Binding pIC50 (converted).

T1 sequence (P31391 whole entry): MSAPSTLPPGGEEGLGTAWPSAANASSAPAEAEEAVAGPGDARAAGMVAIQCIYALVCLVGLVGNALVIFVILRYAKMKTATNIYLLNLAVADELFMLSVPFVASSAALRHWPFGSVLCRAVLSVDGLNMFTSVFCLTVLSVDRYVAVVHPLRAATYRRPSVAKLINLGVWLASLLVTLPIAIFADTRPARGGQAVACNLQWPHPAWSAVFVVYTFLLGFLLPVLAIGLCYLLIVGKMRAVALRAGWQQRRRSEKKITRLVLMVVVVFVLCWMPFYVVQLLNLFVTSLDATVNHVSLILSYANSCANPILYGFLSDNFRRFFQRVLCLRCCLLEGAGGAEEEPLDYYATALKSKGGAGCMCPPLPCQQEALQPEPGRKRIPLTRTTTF
Chain of SSTR1 (P30872 whole entry): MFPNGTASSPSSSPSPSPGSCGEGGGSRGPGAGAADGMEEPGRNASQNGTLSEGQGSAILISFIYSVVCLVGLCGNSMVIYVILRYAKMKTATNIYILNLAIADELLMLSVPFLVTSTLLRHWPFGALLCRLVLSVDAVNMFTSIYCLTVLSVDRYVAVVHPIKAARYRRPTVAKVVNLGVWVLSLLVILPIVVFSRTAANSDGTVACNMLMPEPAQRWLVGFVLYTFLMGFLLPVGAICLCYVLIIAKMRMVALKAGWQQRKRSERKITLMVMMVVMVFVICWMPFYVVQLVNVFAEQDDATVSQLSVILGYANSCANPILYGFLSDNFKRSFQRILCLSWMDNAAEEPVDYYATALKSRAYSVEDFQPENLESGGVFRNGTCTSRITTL
Procedure for SSTR1: Membranes from CHO-K1 cells overexpressing SSTR1 are purchased from Perkin Elmer (catalog number ES-520-M400UA). […] Then 10 μg of SSTR1 membranes in 50 μL assay buffer are added per well. The plate is incubated for 60 minutes at room temperature. […] The contents of the assay plate are transferred to filters with a TomTech harvester and washed 5 times with 20 mM HEPES, 100 mM NaCl. […] The scintillator sheets are melted to the filters using a heat block. The filters are then read in a MicroBeta scintillation counter. Binding Ki curves are generated using Activity Base for Screening Data Management and the results are reported as pIC50.

Consider `CN1CCC(NC(=O)C(C)(C)COc2ncccc2OC(F)(F)F)C2(CC2)C1` (stereo not drawn) [Example 119, 2,2-dimethyl-N-(5-methyl-5-azaspiro[2.5]octan-8-yl)-3-((3-(trifluoromethoxy)pyridin-2-yl)oxy)propanamide], for which the “SSTR4 Activity pEC50” value on SSTR4 [1] amounted to 9.0. The “SSTR1 Binding pIC50” value at SSTR1 came to 5.0. In addition, the “SSTR4 Binding pIC50” value at SSTR4 [2] is reported as 7.3.

For `C[C@@H]1CN(C)CC[C@H]1NC(=O)C(C)(C)COc1ccccc1Cl` (relative stereo) [Example 186, trans-3-(2-chlorophenoxy)-N-(1,3-dimethylpiperidin-4-yl)-2,2-dimethylpropanamide], the “SSTR4 Activity pEC50” value at SSTR4 [1] is listed as 8.1. Further, the “SSTR1 Binding pIC50” value at SSTR1 turned out to be 5.5. Further, the “SSTR4 Binding pIC50” value on SSTR4 [2] was determined as 7.4.

For `Cc1ccccc1[C@@H]1CNCC[C@H]1NC(=O)C(C)(C)COc1ncccc1C(F)(F)F` (relative stereo) [Example 157, 2,2-dimethyl-N-(trans-3-(o-tolyl)piperidin-4-yl)-3-((3-(trifluoromethyl)pyridin-2-yl)oxy)propanamide], on SSTR4 [1], the “SSTR4 Activity pEC50” value worked out at 9.9. In addition, the “SSTR1 Binding pIC50” value on SSTR1 came out at 7.0. Moreover, the “SSTR4 Binding pIC50” value at SSTR4 [2] turned out to be 8.8.

In the case of `CN1CC[C@H](NC(=O)C(C)(C)COc2ncccc2OC(F)(F)F)[C@@H](F)C1` [Example 124, N-((3S,4S)-3-fluoro-1-methylpiperidin-4-yl)-2,2-dimethyl-3-((3-(trifluoromethoxy)pyridin-2-yl)oxy)propanamide], the “SSTR4 Activity pEC50” value at SSTR4 [1] is 7.6. Also, the “SSTR1 Binding pIC50” value on SSTR1 stood at 5.1. At SSTR4 [2], the “SSTR4 Binding pIC50” value stood at 7.4.

For `C[C@@H]1CN(C)CC[C@H]1NC(=O)C(F)(F)COc1ncccc1OC(F)(F)F` (racemic) [Example 200, N-(trans-1,3-dimethylpiperidin-4-yl)-2,2-difluoro-3-((3-(trifluoromethoxy)pyridin-2-yl)oxy)propanamide], the EC50 on SSTR4 [1] was 31.6 nM. The IC50 was 39800 nM at SSTR1 and 126 nM on SSTR4 [2].

On to `CN1CC(NC(=O)C(C)(C)COc2ncccc2C(F)(F)F)C2(CC2)C1` (stereo not drawn) [Example 138, 2,2-dimethyl-N-(5-methyl-5-azaspiro[2.4]heptan-7-yl)-3-((3-(trifluoromethyl)pyridin-2-yl)oxy)propanamide], for which the “SSTR4 Activity pEC50” value on SSTR4 [1] came out at 8.0. Moreover, the “SSTR1 Binding pIC50” value on SSTR1 is 5.7. Also, the “SSTR4 Binding pIC50” value on SSTR4 [2] came to 7.2.

Regarding `C[C@H]1CNCC[C@@H]1NC(=O)C(C)(C)COc1ccccc1Cl` [Example 190, 3-(2-chlorophenoxy)-2,2-dimethyl-N-((3S,4S)-3-methylpiperidin-4-yl)propanamide], the “SSTR4 Activity pEC50” value at SSTR4 [1] was 9.8. In addition, on SSTR1, the “SSTR1 Binding pIC50” value turned out to be 5.3. Further, the “SSTR4 Binding pIC50” value on SSTR4 [2] was found to be 7.6.

As for `CN1CCC(NC(=O)C(C)(C)COc2ccccc2OC(F)(F)F)CC1` [Example 102, 2,2-dimethyl-N-(1-methylpiperidin-4-yl)-3-(2-(trifluoromethoxy)phenoxy)propanamide], the “SSTR4 Activity pEC50” value at SSTR4 [1] was found to be 8.7. In addition, on SSTR1, the “SSTR1 Binding pIC50” value stood at 5.6. The “SSTR4 Binding pIC50” value at SSTR4 [2] came out at 7.8.

In the case of `CN1C[C@@H](NC(=O)C(C)(C)COc2ncccc2C(F)(F)F)[C@H](c2cnn(C)c2)C1` (relative stereo) [Example 19, trans-2,2-dimethyl-N-(1-methyl-4-(1-methyl-1H-pyrazol-4-yl)pyrrolidin-3-yl)-3-((3-(trifluoromethyl)pyridin-2-yl)oxy)propanamide], the “SSTR4 Activity pEC50” value at SSTR4 [1] is 7.7. Further, the “SSTR1 Binding pIC50” value on SSTR1 was determined as 6.1. Also, the “SSTR4 Binding pIC50” value on SSTR4 [2] is listed as 6.8.

As for `CC(C)[C@@H]1CN(C)C[C@H]1NC(=O)C(C)(C)COc1ncccc1C(F)(F)F` (racemic) [Example 15, trans-N-(4-isopropyl-1-methylpyrrolidin-3-yl)-2,2-dimethyl-3-((3-(trifluoromethyl)pyridin-2-yl)oxy)propanamide], on SSTR4 [1], the EC50 was 20 nM. The IC50 was 3160 nM on SSTR1 and 158 nM on SSTR4 [2].

With `Cc1ccccc1[C@@H]1CNCC[C@@H]1N(C)C(=O)C(C)(C)COc1ncccc1C(F)(F)F` (relative stereo) [Example 156, N,2,2-trimethyl-N-(cis-3-(o-tolyl)piperidin-4-yl)-3-((3-(trifluoromethyl)pyridin-2-yl)oxy)propanamide], the “SSTR4 Activity pEC50” value on SSTR4 [1] was 7.2. In addition, the “SSTR1 Binding pIC50” value at SSTR1 came out at 4.6. Further, the “SSTR4 Binding pIC50” value on SSTR4 [2] was determined as 6.4.

For `Cc1ncccc1[C@@H]1CNCC[C@H]1N(C)C(=O)C(C)(C)COc1ncccc1C(F)(F)F` (racemic) [Example 172, N,2,2-trimethyl-N-(trans-3-(2-methylpyridin-3-yl)piperidin-4-yl)-3-((3-(trifluoromethyl)pyridin-2-yl)oxy)propanamide], the EC50 on SSTR4 [1] is 12.6 nM. The IC50 on SSTR1 is 39800 nM; at SSTR4 [2] it was 2000 nM.

In the case of `C[C@@H]1C[C@H](NC(=O)C(C)(C)COc2ncccc2OC(F)(F)F)CCN1C` [Example 179, N-((2R,4R)-1,2-dimethylpiperidin-4-yl)-2,2-dimethyl-3-((3-(trifluoromethoxy)pyridin-2-yl)oxy)propanamide], at SSTR4 [1], the “SSTR4 Activity pEC50” value was 8.1. Also, the “SSTR1 Binding pIC50” value on SSTR1 came out at 4.8. The “SSTR4 Binding pIC50” value on SSTR4 [2] stood at 7.4.

Take `Cc1c([C@@H]2CN(C)C[C@H]2NC(=O)C(C)(C)COc2ncccc2C2CC2)cnn1C` (relative stereo) [Example 27, trans-3-((3-cyclopropylpyridin-2-yl)oxy)-N-(4-(1,5-dimethyl-1H-pyrazol-4-yl)-1-methylpyrrolidin-3-yl)-2,2-dimethylpropanamide]: the “SSTR4 Activity pEC50” value at SSTR4 [1] came to 8.9. In addition, on SSTR1, the “SSTR1 Binding pIC50” value is listed as 6.9. In addition, the “SSTR4 Binding pIC50” value at SSTR4 [2] was found to be 7.6.

In the case of `CN1CC[C@H](NC(=O)C(C)(C)COc2ncccc2C2CC2)[C@@H](F)C1` [Example 123, 3-((3-cyclopropylpyridin-2-yl)oxy)-N-((3S,4S)-3-fluoro-1-methylpiperidin-4-yl)-2,2-dimethylpropanamide], at SSTR4 [1], the “SSTR4 Activity pEC50” value came out at 7.8. Also, the “SSTR1 Binding pIC50” value at SSTR1 was determined as 4.9. For the same molecule, the “SSTR4 Binding pIC50” value at SSTR4 [2] worked out at 7.2.

Turning to `CN1CC[C@@H](NC(=O)C(C)(C)COc2ccccc2C2CC2)C1` [Example 71, (R)-3-(2-cyclopropylphenoxy)-2,2,-dimethyl-N-(1-methylpyrrolidin-3-yl)propanamide], the “SSTR4 Activity pEC50” value on SSTR4 [1] was 8.3. Further, the “SSTR1 Binding pIC50” value on SSTR1 amounted to 5.3. For the same molecule, the “SSTR4 Binding pIC50” value at SSTR4 [2] is 7.3.

As for `CCc1ccccc1OCC(C)(C)C(=O)NC1CCN(C)CC1` [Example 72, 3-(2-ethylphenoxy)-2,2-dimethyl-N-(1-methylpiperidin-4-yl)propanamide], the “SSTR4 Activity pEC50” value at SSTR4 [1] is on record as 8.1. Moreover, on SSTR1, the “SSTR1 Binding pIC50” value is reported as 4.8. For the same molecule, on SSTR4 [2], the “SSTR4 Binding pIC50” value came out at 7.1.

On to `CN1C[C@@H](NC(=O)C(C)(C)COc2ncccc2C2CC2)[C@H](c2cnn(C)c2)C1` (relative stereo) [Example 22, trans-3-((3-cyclopropylpyridin-2-yl)oxy)-2,2-dimethyl-N-(1-methyl-4-(1-methyl-1H-pyrazol-4-yl)pyrrolidin-3-yl)propanamide], for which the “SSTR4 Activity pEC50” value on SSTR4 [1] turned out to be 7.9. In addition, the “SSTR1 Binding pIC50” value on SSTR1 was determined as 6.0. The “SSTR4 Binding pIC50” value at SSTR4 [2] came to 7.0.

For `C[C@H]1CNCC[C@@H]1NC(=O)C(F)(F)COc1ncccc1OC(F)(F)F` [Example 210, 2,2-difluoro-N-((3S,4S)-3-methylpiperidin-4-yl)-3-((3-(trifluoromethoxy)pyridin-2-yl)oxy)propanamide], at SSTR4 [1], the “SSTR4 Activity pEC50” value is on record as 9.1. The “SSTR1 Binding pIC50” value at SSTR1 turned out to be 4.5. Further, the “SSTR4 Binding pIC50” value at SSTR4 [2] is 7.6.

Consider `Cc1cccnc1OCC(C)(C)C(=O)N[C@H]1CCN(C)C[C@@H]1C` [Example 143, N-((3S,4S)-1,3-dimethylpiperidin-4-yl)-2,2-dimethyl-3-((3-methylpyridin-2-yl)oxy)propanamide], for which the “SSTR4 Activity pEC50” value on SSTR4 [1] turned out to be 7.9. Moreover, the “SSTR1 Binding pIC50” value at SSTR1 worked out at 4.8. Also, the “SSTR4 Binding pIC50” value at SSTR4 [2] came out at 6.9.

With `Cc1nn(C)cc1[C@@H]1CN(C)C[C@H]1NC(=O)C(C)(C)COc1ncccc1C(F)(F)F` (relative stereo) [Example 25, trans-N-(4-(1,3-dimethyl-1H-pyrazol-4-yl)-1-methylpyrrolidin-3-yl)-2,2-dimethyl-3-((3-(trifluoromethyl)pyridin-2-yl)oxy)propanamide], at SSTR4 [1], the “SSTR4 Activity pEC50” value was found to be 8.3. In addition, the “SSTR1 Binding pIC50” value on SSTR1 is 6.4. In addition, the “SSTR4 Binding pIC50” value on SSTR4 [2] amounted to 7.0.

In the case of `CCc1ccccc1OCC(C)(C)C(=O)NC1CCN(CC(=O)c2ccc(Cl)cc2)CC1` [Example 104, N-(1-(2-(4-chlorophenyl)-2-oxoethyl)piperidin-4-yl)-3-(2-ethylphenoxy)-2,2-dimethylpropanamide], the “SSTR4 Activity pEC50” value at SSTR4 [1] was found to be 9.2. In addition, on SSTR1, the “SSTR1 Binding pIC50” value came out at 4.8. Further, the “SSTR4 Binding pIC50” value on SSTR4 [2] is 8.0.

With `Cc1cccnc1OCC(C)(C)C(=O)N[C@@H]1CN(C)C[C@H]1c1cnn(C)c1` (relative stereo) [Example 18, trans-2,2-dimethyl-N-(1-methyl-4-(1-methyl-1H-pyrazol-4-yl)pyrrolidin-3-yl)-3-((3-methylpyridin-2-yl)oxy)propanamide], the “SSTR4 Activity pEC50” value on SSTR4 [1] was found to be 7.1. Moreover, the “SSTR1 Binding pIC50” value on SSTR1 came out at 5.1. In addition, at SSTR4 [2], the “SSTR4 Binding pIC50” value stood at 6.0.

On to `Cc1cccnc1OCC(C)(C)C(=O)N[C@@H]1CCN(C)C[C@H]1C` (relative stereo) [Example 17, trans-N-(1,3-dimethylpiperidin-4-yl)-2,2-dimethyl-3-((3-methylpyridin-2-yl)oxy)propanamide], for which the “SSTR4 Activity pEC50” value at SSTR4 [1] stood at 7.7. The “SSTR1 Binding pIC50” value at SSTR1 is reported as 4.7. For the same molecule, on SSTR4 [2], the “SSTR4 Binding pIC50” value is given as 6.7.
